Columns and labels:
[1] = target: T1, glucocorticoid receptor (GR) (Homo sapiens, UniProt P04150); assay: Affinity for the glucocorticoid receptor; type: binding
T1 sequence (P04150 1-777): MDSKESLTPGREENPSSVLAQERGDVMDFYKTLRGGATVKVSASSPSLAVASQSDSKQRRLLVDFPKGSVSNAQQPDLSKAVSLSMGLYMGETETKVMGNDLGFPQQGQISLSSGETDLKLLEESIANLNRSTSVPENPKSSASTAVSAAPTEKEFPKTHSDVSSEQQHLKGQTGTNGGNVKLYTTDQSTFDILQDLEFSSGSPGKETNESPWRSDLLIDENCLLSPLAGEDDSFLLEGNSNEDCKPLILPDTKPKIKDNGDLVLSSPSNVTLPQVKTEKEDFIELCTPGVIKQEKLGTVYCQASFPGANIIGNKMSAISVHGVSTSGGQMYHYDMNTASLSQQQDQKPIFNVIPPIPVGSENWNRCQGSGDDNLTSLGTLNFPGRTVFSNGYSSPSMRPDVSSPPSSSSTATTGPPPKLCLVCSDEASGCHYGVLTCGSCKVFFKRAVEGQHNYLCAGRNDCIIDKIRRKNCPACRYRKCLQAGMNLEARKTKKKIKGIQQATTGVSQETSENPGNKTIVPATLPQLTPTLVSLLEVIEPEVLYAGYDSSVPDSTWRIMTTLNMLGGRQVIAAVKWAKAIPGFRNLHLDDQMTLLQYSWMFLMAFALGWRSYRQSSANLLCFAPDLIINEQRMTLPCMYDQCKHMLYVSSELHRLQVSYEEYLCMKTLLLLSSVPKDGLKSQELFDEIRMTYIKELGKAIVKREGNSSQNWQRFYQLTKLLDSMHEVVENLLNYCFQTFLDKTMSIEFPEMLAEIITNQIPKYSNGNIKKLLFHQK

[2] = test system: rat mammary epithelium; assay: Bioassay on proliferating/differentiating effects in the rat mammary epithelium (whole mount staining, terminal and alveolar endbuds); type: in vivo
Excerpt: The object of this test is to evaluate the effect of progestins on the development of the mammary gland, in particular on the formation of terminal end-buds in the mammary gland in estrogen primed rats. Progestins together with other hormones (prolactin, estrogens, glucocorticoids, growth hormones etc.) induce proliferation and differentiation of the mammary glandular epithelium. In particular, they are involved in the morphogenesis of alveolar and terminal end buds, the sites of milk protein production and secretion into the ductal lumen.
In order to determine the effects of test progestins according to the present invention, in particular compound ((+)-1), in mammary gland differentiation and proliferation, premature female rats (Wistar Han, SPF) are ovariectomized at the age of 21 days, 4 to 6 days before treatment start. The animals are treated for 6 days with standard estrogen (estrone (E1), 70 μg/kg) and the test progestin ((+)-1) (application volume: 0.1 ml/50 g body weight; vehicle: benzylbenzoate/castor oil (1+4 v/v); subcutaneous). Control groups are e.g.: vehicle, estrone without progestin, estradiol together with a known progestin, e.g. R5020 (promegestone). After the 6-day treatment the animals are killed with carbon dioxide.
For the whole mount staining, animals are shaved in the left abdominal inguinal mammary region, which is cut from the body together with the skin. For the histological/immunohistochemical analyses the right abdominal inguinal mammary gland is cut from the body together with the connective-tissue adhered thereto and fixed in 3.7% formalin in PBS (phosphate buffer saline; without Ca^2+/Mg^2+).
The preparations are fixed over night in alcohol-formalin according to the method of Tellyesniczky (see below). Then the mammary gland tissue and subcutis adhered thereto are stripped from the cutis and the preparations are again fixed over night. The further steps are as follows: ethanol 70%: 1.5 hours; acetone: 3×1.5 hours; acetone: over night; isopropanol: 1.5 hours; ethanol 96%: 2 hours; hematoxylin-iron: 3 hours; VE water: first rinse the preparations and then 2×0.5 hours; ethanol 70%: over night; ethanol 80%: 1.5 hours; ethanol 96%: 1.5 hours; isopropanol: 1.5 hours. The preparations are then moved to petri dishes and left in toluene for approximately 1 hour, i.e. until they have stopped to swim up. Then the preparations are treated with cedarwood oil (Merck, no. 1.06965). The incubation times above are minimum times and can be extended. In particular, incubation in ethanol 70% after fixation can be extended to at least 2.5 weeks.
Preparation of the solutions necessary for the whole mount staining: • a) Alcohol-formalin according to Tellyesniczky: formaldehyde 37%: 81.8 ml, ethanol 70%: 1636 ml, glacial acetic acid (to be added shortly before use): 81.8 ml (total: 1800 ml). • b) Hematoxylin mother solution: Hematoxylin (Merck, no. 1.15938): 10 g, ethanol 96%: 100 ml. The solution must stand for 48 hours at 37° C. before use. […]
By means of a 40-fold magnification, the terminal end buds near the nipple in direction of the tail are counted. […] For well-differentiated preparations this area may be reduced, with at least 250 buds to be counted. After counting, the number of end buds per 1 mm^2 is calculated.
The number of terminal and alveolar endbuds is counted per mm^2 +/− standard deviation (SD). […]

Q: How did the “Affinity for the glucocorticoid receptor (GR)” value [1] turn out when O=C1OCc2cc(NC(=O)C(O)(CC3(c4cc(C(F)(F)F)ccc4F)CC3)C(F)(F)F)ccc21 (single isomer, unassigned; (+)) [((+)-1), (+)-5-{2-hydroxy-3-[1-(2-fluoro-5-trifluoromethylphenyl)-cyclopropyl]-2-trifluoromethyl-propionylamino}-phthalide] was run?
A: The value was “very high affinity”.

Q: And the “Threshold value for the induction of terminal and alveolar endbuds” value ([2]; FIG. 3)?
A: Its value is 100 µg/kg/day.

Q: What about the “Terminal and alveolar end bud formation, result in words” value ([2]; at doses where pregnancy is fully maintained) of the same compound?
A: The value was “no effects on terminal and alveolar end bud formation can be observed”.

Q: What about the “Mammary gland, whole mount staining (rat) [threshold value]” value ([2]; induction of terminal and alveolar endbuds) of the same compound?
A: The value was 0.1 mg/kg/day.

Q: And the “Mammary gland, whole mount staining, factor compared to R5020” value ([2]; median of three tests)?
A: The value was “ca. 1”.

Q: What about the “Dissociation in favor of uterotropic activity (uterus versus mammary gland)” value ([2]; pregnancy maintenance versus mammary gland) of the same compound?
A: The value was “at least six fold”.

From patent US7388006B2, “Non-steroidal progesting” (Bayer Schering Pharma AG, priority 2002, dated 2008)
